Legend:
SHV-5 β-lactamase = biological target: T1, SHV-5 β-lactamase (Klebsiella pneumoniae, UniProt P0A3M1); assay: β-lactamase enzyme inhibition, SHV-5; type: biochemical
T1 construct: made in house; host or cells: E. coli BL21(DE3)
Method: (§1) For SHV-5, Kpc-2, p99AmpC and OXA-1 β-lactamases, E. coli BL21(DE3) bacterial cells carrying expression plasmids (expressed as native untagged proteins) for the individual β-lactamases were grown in 1 L of Superbroth (Teknova Inc. Hollister, Calif.) supplemented with 100 μg/ml kanamycin selection and 1×5052 (0.5% glycerol, 0.05% glucose and 0.2% α-lactose) at 35° C. for 18-20 hours. Cells were harvested by centrifugation (4,000×g, 4° C., 20 min), resuspended in 50 ml of 10 mM HEPES pH 7.5 ( 1/20 of the initial volume). The cells were lysed by sonication (5 pulses of 45 seconds) at 45 W on ice. The lysates were clarified by centrifugation at 10,000×g for 40 minutes at 4° C. Samples were diluted 5-fold in 50 mM sodium acetate pH 5.0, stored overnight at 4° C., after which they were centrifuged at 10,000×g for 30 minutes to clarify, and filtered through 0.45 μm filters. The samples were loaded onto a 5 ml Capto S sepharose cation exchange column (GE Healthcare) pre-equilibrated with 50 mM sodium acetate pH 5.0. The column was washed with 5 column volumes of 50 mM sodium acetate pH 5.0 to wash out unbound protein and a linear gradient of NaCl (0 to 500 mM) was used to elute the protein (over 16 CV) from the column. Fractions were assayed for […] activity using Centa (Calbiochem, Gibbstown, N.J.) or Nitrocefin (EMD Millipore chemicals, Darmstadt, Germany) as a reporter β-lactamase substrate for activity in the isolated fractions. Active fractions were pooled, concentrated and further purified by gel filtration chromatography on a Superdex 75 prep grade gel filtration column (GE Healthcare, Piscataway, N.J.) pre-equilibrated in 50 mM Hepes pH 7.5, 150 mM NaCl. Active fractions were pooled, concentrated, and quantitated by BCA protein determination (Thermo Scientific, Rockford, Ill.), dialyzed into PBS and frozen at −80° C. in 20% glycerol until use.
(§2) An equal volume of diluted enzyme stock was added, and the plates were incubated at 37° C. for 15 min. Nitrocefin was used as substrate for p99 AmpC, VIM-2 and OXA-1 and dispensed into each well at a final concentration of 100 μM. Absorbance at 486 nm was immediately monitored for 10 min using a Biotek Powerwave XS2 microplate spectrophotometer using the GEN5 software package (Biotek Instruments, Winooski Vt.). In an analogous fashion, imipenem was used as substrate for KPC-2 and Cefotaxime was used for SHV-5, while changes in absorbance upon hydrolysis of the β-lactam ring were monitored at 300 nm and 260 nm respectively in UV-transparent 96-well microtiter assay plates. Maximum rates of hydrolysis were compared to those in control wells (without inhibitors), and percentages of enzyme inhibition were calculated for each concentration of inhibitor. The concentration of inhibitor needed to reduce the initial rate of hydrolysis of substrate by 50% (IC50) was calculated as the residual activity of β-lactamase at 486 nm using GraFit version 7 kinetics software package (Erithacus Software, Surrey, UK).
(§3) Using the methodology described above, examples of the current invention were evaluated for their ability to inhibit β-lactamase enzymes from all four Ambler classifications (A through D). […] NT=Not tested.

KPC-2 β-lactamase = biological target: T2, KPC-2 β-lactamase (Klebsiella pneumoniae, UniProt Q9F663); assay: β-lactamase enzyme inhibition, KPC-2; type: biochemical; conditions: imipenem substrate, 300 nm; 15 min at 37° C. preincubation; read-out: IC50 KPC-2 (Class A)
T2 construct: made in house; host or cells: E. coli BL21(DE3)
T2 sequence (Q9F663 25-293, looked up): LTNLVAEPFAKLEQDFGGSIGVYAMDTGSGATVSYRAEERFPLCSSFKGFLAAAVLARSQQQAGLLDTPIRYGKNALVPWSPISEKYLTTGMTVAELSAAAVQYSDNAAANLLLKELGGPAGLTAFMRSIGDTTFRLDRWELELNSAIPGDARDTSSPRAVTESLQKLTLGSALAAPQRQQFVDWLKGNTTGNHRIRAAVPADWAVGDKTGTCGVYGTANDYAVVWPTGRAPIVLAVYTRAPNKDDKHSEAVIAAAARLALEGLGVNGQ
Method: as §1, §2, §3

[1] = biological target: T3, VIM-2 metallo β-lactamase (Pseudomonas aeruginosa, UniProt Q9K2N0); assay: β-lactamase enzyme inhibition, VIM-2; type: biochemical; conditions: Nitrocefin 100 μM, 486 nm; 15 min at 37° C. preincubation; read-out: IC50 VIM-2 (Class B)
T3 construct: made in house; host or cells: E. coli BL21(DE3)
Method: For VIM-2 metallo β-lactamase, the procedure was identical with the following exceptions, first the protein was not pH adjusted to pH 5 with 50 mM sodium acetate. Second, the chromatography step was changed to a 5 ml Q sepharose anion exchange column pre-equilibrated with 50 mM Hepes pH 7.5, and elution of the protein was achieved by a linear gradient of NaCl (0-600 mM). Finally, the VIM-2 purification required a second run (3rd step) on the Q sepharose anion exchange column to achieve acceptable purity (>90%).
as §2, §3

p99 AmpC β-lactamase = biological target: T4, p99 AmpC β-lactamase (Enterobacter cloacae, UniProt P05364); assay: β-lactamase enzyme inhibition, p99 AmpC; type: biochemical
T4 construct: made in house; host or cells: E. coli BL21(DE3)
T4 sequence (P05364 21-381): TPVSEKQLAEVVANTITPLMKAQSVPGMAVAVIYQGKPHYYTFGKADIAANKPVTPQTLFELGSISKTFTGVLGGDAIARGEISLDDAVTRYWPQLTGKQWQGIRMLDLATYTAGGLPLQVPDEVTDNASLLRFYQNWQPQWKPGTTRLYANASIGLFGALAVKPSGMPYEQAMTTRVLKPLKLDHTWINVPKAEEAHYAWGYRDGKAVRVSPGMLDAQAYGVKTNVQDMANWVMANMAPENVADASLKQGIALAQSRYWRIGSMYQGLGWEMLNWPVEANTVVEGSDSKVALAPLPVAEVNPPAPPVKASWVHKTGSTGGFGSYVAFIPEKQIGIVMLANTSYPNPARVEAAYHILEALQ
Method: as §1, §2
Using the methodology described above, examples of the current invention were evaluated for their ability to inhibit β-lactamase enzymes from all four Ambler classifications (A through D).

OXA-1 β-lactamase = biological target: T5, OXA-1 β-lactamase (Escherichia coli, UniProt P13661); assay: β-lactamase enzyme inhibition, OXA-1; type: biochemical; conditions: Nitrocefin 100 μM, 486 nm; 15 min at 37° C. preincubation; read-out: IC50 OXA-1 (Class D)
T5 construct: made in house; host or cells: E. coli BL21(DE3)
T5 sequence (P13661 26-276): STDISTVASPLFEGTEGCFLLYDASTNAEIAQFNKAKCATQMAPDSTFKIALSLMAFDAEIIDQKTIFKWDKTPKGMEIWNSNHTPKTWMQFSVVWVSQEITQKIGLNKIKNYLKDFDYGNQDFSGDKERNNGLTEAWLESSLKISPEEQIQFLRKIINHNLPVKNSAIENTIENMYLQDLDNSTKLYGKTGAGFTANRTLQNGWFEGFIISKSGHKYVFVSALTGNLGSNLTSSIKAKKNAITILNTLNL
Method: as §1, §2, §3

[2] = system: E. coli ESBL4 expressing CTX-M-15; assay: broth microdilution MIC, E. coli CTX-M-15; type: cell-based; conditions: Fixed CAZ (ceftazidime) 4 μg/mL
Text: (§4) To determine the ability of test compounds to potentiate the inhibition of the growth of bacterial strains that produce beta-lactamase enzymes, classic cell based broth microdilution MIC assays were employed. Six bacteria strains producing beta-lactamase enzymes were used: E. coli expressing the Class A Extended Spectrum Beta-Lactamase (ESBL) CTX-M-15, E. cloacae expressing the Class C P99, K. pneumoniae expressing the Class A carbapenemase KPC-3, P. aeruginosa expressing the Class B carbapenemase VIM-2, K pneumoniae expressing the class A carbapenemase KPC-2 and the class B carbapenemase VIM-4, and S. aureus producing the Class A penicillinase PC-1. The assay was conducted in Cation Adjusted Mueller Hinton Broth (CAMHB, BD #212322, BD Diagnostic Systems, Sparks, Md.). Bacteria strains were grown for 3-5 hours in CAMBH broth. Test compounds were added to a microtiter plate in 2-fold serial dilutions in CAMHB in a final concentration range of 32 μg/mL to 0.25 μg/ml. An overlay of CAMHB containing a Beta-lactam was added to the compounds at a final static concentration of 4 μg/ml. […] In addition to the titration of test compounds the MICs of a panel of control beta-lactams is also tested to ensure the strains are behaving consistently from test to test. Once the test compound and antibiotics are added the plates can be inoculated according to CLSI broth microdilution method. After inoculation the plates are incubated for 16-20 hours at 37° C., then the Minimal Inhibitory Concentration (MIC) of the test compound is determined visually.
(§5) Using the methodology described above, examples of the current invention were evaluated for their ability to inhibit the growth of β-lactamase-producing bacteria in the presence of a β-lactam antibiotic.
(§6) Representative results are shown in Table 4 where A represents an MIC of the fixed β-lactam antibiotic in the presence of >32 µg/mL of a β-lactamase inhibitor of exemplary compounds, B represents the MIC in the presence of between 8 and 32 µg/mL of a β-lactamase inhibitor of exemplary compounds, and C represents the MIC in the presence of ≤4 µg/mL of a β-lactamase inhibitor of exemplary compounds. NT=Not Tested.

[3] = system: E. cloacae 144200 expressing Class C P99 AmpC; assay: broth microdilution MIC, E. cloacae P99; type: cell-based; conditions: Fixed CAZ (ceftazidime) 4 μg/mL
Text: as §4, §5, §6

[4] = system: K. pneumoniae 156319 expressing KPC-3; assay: broth microdilution MIC, K. pneumoniae KPC-3; type: cell-based; conditions: Fixed Mero (meropenem) 4 μg/mL
Text: as §4, §5, §6

[5] = system: K. pneumoniae A-1797 expressing KPC-2 and VIM-4; assay: broth microdilution MIC, K. pneumoniae KPC-2 and VIM-4; type: cell-based; conditions: Fixed Mero (meropenem) 4 μg/mL
Text: as §4, §5, §6

T1 sequence (P0A3M1 22-286): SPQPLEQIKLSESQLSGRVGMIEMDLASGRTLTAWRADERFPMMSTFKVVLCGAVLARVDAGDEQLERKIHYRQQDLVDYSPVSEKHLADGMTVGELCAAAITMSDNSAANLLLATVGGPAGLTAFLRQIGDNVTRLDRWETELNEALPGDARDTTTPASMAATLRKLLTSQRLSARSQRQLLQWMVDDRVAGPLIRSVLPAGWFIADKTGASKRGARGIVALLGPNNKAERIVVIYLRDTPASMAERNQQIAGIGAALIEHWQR

| Compound | IC50 (SHV-5 β-lactamase) | IC50 (KPC-2 β-lactamase) | IC50 [1] | IC50 (p99 AmpC β-lactamase) | IC50 (OXA-1 β-lactamase) | MIC of exemplary compounds in presence of fixed β-lactams, E. coli ESBL4 CTX-M-15 [2] | MIC of exemplary compounds in presence of fixed β-lactams, E. cl. 144200 p99 AmpC [3] | MIC of exemplary compounds in presence of fixed β-lactams, K.P. 156319 KPC-3 [4] | MIC of exemplary compounds in presence of fixed β-lactams, K.P. A-1797 KPC-2 VIM-4 [5] |
| --- | --- | --- | --- | --- | --- | --- | --- | --- | --- |
| N#CCCC(=O)N[C@H]1Cc2cc(F)c(F)c(C(=O)O)c2OB1O [Example 49, (R)-3-(3-Cyano-propionylamino)-6,7-difluoro-2-hydroxy-3,4-dihydro-2H-benzo[e][1,2]oxaborinine-8-carboxylic acid] | < 0.1 µM | < 0.1 µM | 1 to 10 µM | 0.1 to 1 µM | < 0.1 µM | C (C represents the MIC in the presence of ≤4 g/mL of a β-lactamase inhibitor) | C (C represents the MIC in the presence of ≤4 g/mL of a β-lactamase inhibitor) | C (C represents the MIC in the presence of ≤4 g/mL of a β-lactamase inhibitor) | B (B represents the MIC in the presence of between 8 and 32 g/mL of a β-lactamase inhibitor) |
| CC(=O)/C=C/C(=O)N[C@H]1Cc2cccc(C(=O)O)c2OB1O [Example 39, (R)-2-Hydroxy-3-(4-oxo-pent-2-enoylamino)-3,4-dihydro-2H-benzo[e][1,2]oxaborinine-8-carboxylic acid] | < 0.1 µM | < 0.1 µM | 0.1 to 1 µM | < 0.1 µM | < 0.1 µM | C (C represents the MIC in the presence of ≤4 g/mL of a β-lactamase inhibitor) | C (C represents the MIC in the presence of ≤4 g/mL of a β-lactamase inhibitor) | B (B represents the MIC in the presence of between 8 and 32 g/mL of a β-lactamase inhibitor) | B (B represents the MIC in the presence of between 8 and 32 g/mL of a β-lactamase inhibitor) |
| NC(=O)NCC(=O)N[C@H]1Cc2cccc(C(=O)O)c2OB1O [Example 36, (R)-2-Hydroxy-3-(2-ureido-acetylamino)-3,4-dihydro-2H-benzo[e][1,2]oxaborinin-8-carboxylic acid] | < 0.1 µM | 0.1 to 1 µM | 0.1 to 1 µM | < 0.1 µM | < 0.1 µM | C (C represents the MIC in the presence of ≤4 g/mL of a β-lactamase inhibitor) | C (C represents the MIC in the presence of ≤4 g/mL of a β-lactamase inhibitor) | C (C represents the MIC in the presence of ≤4 g/mL of a β-lactamase inhibitor) | C (C represents the MIC in the presence of ≤4 g/mL of a β-lactamase inhibitor) |
